In patent US5744476A, “Dopamine D1 agonists for the treatment of dementia” (Interneuron Pharmaceuticals, Inc., priority 1994, dated 1998):
Entries after “also recorded” stand apart in the source; their conditions may differ. Where two headings read alike, the source gives them in different places.

How the values were obtained:
dopamine D1 receptor = settings: cited from earlier work
[1] = tested on: scopolamine-induced deficits (rats); experiment: Passive avoidance in rats, scopolamine-induced amnesia (step-through latency); settings: scopolamine 3.0 mg/kg
adenylate cyclase = settings: cited from earlier work
[2] = Concentration of DHX in brain and plasma over time; assay type: in vivo, rat; settings: 10 mg/kg
Text: (§1) The test protocol followed is disclosed in Ungerstedt, Acta Physiol. Scand. 82 Supp. 367, p. 49-68 (1971). […] This activity may reside in one or more optical isomers of such a metabolite.

[3] = tested on: MPTP-induced parkinsonism model in primates; settings: cited from earlier work
monkeys = settings: cited from earlier work
[4] = tested on: acetylcholine release in the frontal cortex; experiment: In vivo microdialysis, frontal cortex ACh release; parameters: species or system Male Sprague-Dawley rats
Text: The in vivo microdialysis technique is a method for evaluating the effects of drugs on brain neurotransmitter systems by monitoring the extracellular concentration of neurotransmitters and metabolites in awake freely-moving animals. Probes are implanted directly into the brain of rats and serve to continuously sample the extracellular fluid in the vicinity of the probe. Samples containing the dialyzed extracellular fluid are collected at the outlet of the perfusion system and analyzed for content of brain neurotransmitters and metabolites by high-performance liquid chromatography coupled with electrochemical detection (HPLC-EC). […]
The probe was perfused continuously with artificial CSF (composition in Mm: 121 NaCl, 3.5 KCl, 1.2 CaCl2, 1.2 MgCl2, 1.0 NaH2 PO4, 25 NaHCO3, and 0.001 neostigmine) at a flow rate of 1.5 ul/min. […] A 20 ul aliquot was analyzed immediately for acetylcholine (ACh) content by high-performance liquid chromatography with electrochemical detection (HPLC-EC) (see below for details). […]
DHX and SKF 81297, another D1 agonist (Andersen et al., Eur J Pharmacol 188:335, 1990), were administered ip after a stable baseline of ACh release was established in each animal. […] The effects of DHX on ACh release were evaluated in two brain regions associated with cognition (striatum, frontal cortex). […]

6-OHDA-lesioned rats = experiment: Rotational behavior in 6-OHDA-lesioned rats (rodent model of PD); assay type: in vivo, rat; settings: 10 mg/kg
Text: as §1

striatal acetylcholine = experiment: In vivo microdialysis, striatal ACh release; parameters: species or system Male Sprague-Dawley rats; settings: for dialysate concentrations of striatal ACh / duration of increase of dialysate concentrations of striatal ACh: i.p.; for duration of increase of dialysate concentrations of striatal ACh: post-injection; for stimulatory effect of DHX on striatal ACh release (blockade): low dose in combination with DHX
Text: The in vivo microdialysis technique is a method for evaluating the effects of drugs on brain neurotransmitter systems by monitoring the extracellular concentration of neurotransmitters and metabolites in awake freely-moving animals. Probes are implanted directly into the brain of rats and serve to continuously sample the extracellular fluid in the vicinity of the probe. Samples containing the dialyzed extracellular fluid are collected at the outlet of the perfusion system and analyzed for content of brain neurotransmitters and metabolites by high-performance liquid chromatography coupled with electrochemical detection (HPLC-EC).
Male Sprague-Dawley rats weighing 250-350 g were group housed (n=3 per cage) in a temperature-controlled room (23±2° C.) on a 14/10 hr light cycle with free access to food and water. After the surgical procedure, animals were placed in individual cages.
The surgical procedure involved the implantation and fixation of a probe holder/guide cannula to the skull of anesthetized rats. The guide cannula was the attachment site for the rigid concentric microdialysis probes which were implanted into the awake, fully-recovered rat at the onset of the experiment. […] For placement of the guide cannulae, rats were anesthetized with ketamine:xylazine (87:13 mg/kg), shaved and placed in a stereotaxic frame (Narashige Instruments). An incision was made to expose the skull and a small hole was drilled to expose the dura mater for placement of the guide. Guide cannulae were implanted in the striatum according to the following stereotaxic coordinates with reference to bregma: AP -+1.5 mm, L -+2.6 mm and V to dura -2.5 mm (Paxinos and Watson, The rat brain in stereotaxic coordinates, 2nd. ed., Academic Press, London, 1986). The microdialysis probe extended 3.0 mm beyond the tip of the guide cannula which yielded a final ventral placement of 5.5 mm below the dura. The coordinates for placement of the guide into frontal cortex were: AP -+3.0 mm, L -+2.8 mm and V to dura 0 mm, with the probe extending 3.0 mm below the dura. Guide cannulae were fixed to the skull with dental acrylic and anchor screws and a dummy cannula was inserted into each guide for the recovery period. Animals were returned to their home cage and allowed to recover from surgery for 24-48 hrs.
For each experiment, the dialysis probe was connected to a microinfusion pump (CMA-100; Bioanalytical Systems (BAS); W. Lafayette, Ind.) equipped with a liquid switch (CMA-110; BAS) via low dead volume fused-silica tubing (I.D.=75 um; O.D.=150 um). At the time of experiment, the dummy cannula was removed and the probe was inserted through the guide into the conscious animal under light restraint.
The probe was perfused continuously with artificial CSF (composition in Mm: 121 NaCl, 3.5 KCl, 1.2 CaCl2, 1.2 MgCl2, 1.0 NaH2 PO4, 25 NaHCO3, and 0.001 neostigmine) at a flow rate of 1.5 ul/min. Dialysate samples were collected every 20 min (total sample volume=30 μl). A 20 ul aliquot was analyzed immediately for acetylcholine (ACh) content by high-performance liquid chromatography with electrochemical detection (HPLC-EC) (see below for details). A baseline period of at least one hour was allowed prior to invoking any experimental manipulations. […] Sample collection proceeded for a minimum of 3 hrs following drug administration. Upon completion of the experiment, animals were sacrificed by decapitation and brains examined grossly to verify probe placement.
DHX and SKF 81297, another D1 agonist (Andersen et al., Eur J Pharmacol 188:335, 1990), were administered ip after a stable baseline of ACh release was established in each animal. […] The effects of DHX on ACh release were evaluated in two brain regions associated with cognition (striatum, frontal cortex).

cortical ACh release = settings: in vivo; cited from earlier work
animals = settings: cited from earlier work; for memory-improving effect of nigrostriatal self-stimulation or of d-amphetamine (blockade): in vivo
striatal ACh output = settings: cited from earlier work
[5] = tested on: behavioral effects previously associated with D2 antagonists; settings: in vivo; cited from earlier work
[6] = tested on: CADs due to lesions of the medial projection of the basal forebrain to the cortex; settings: cited from earlier work
rodents = settings: cited from earlier work; for retention of win-stay and win-shift tasks: Packard and White, 1989
[7] = tested on: choice accuracy deficits (CADS) due to scopolamine; settings: radial arm maze; cited from earlier work
PD patients = settings: clinical; cited from earlier work

## Oc1cc2c(cc1O)[C@@H]1c3ccccc3CN[C@H]1CC2 (relative stereo) [DHX, trans-10,11-dihydroxy-5,6,6a,7,8,12b-hexahydrobenzo[a]phenanthridine]
Dopamine D1 receptor; D1
  affinity for D1 receptor: nanomolar affinity
Dopamine D1 receptor
  selectivity for the D1 over the D2 receptor: 12- to 60 fold
[1]; DHX 0.1 mg/kg
  step-through latency: increased step-through latency, however, these increases were not statistically-significant
[1]; DHX 0.3 mg/kg, 10 min prior to training
  step-through latency (reversal of scopolamine-induced deficits): significantly improve scopolamine-induced deficits; also recorded: significantly improved scopolamine-induced deficits in step-through latency
[1]; DHX 1.0 mg/kg
  step-through latency: increased step-through latency, however, these increases were not statistically-significant
Adenylate cyclase; versus dopamine
  potency in the stimulation of adenylate cyclase versus dopamine: approximately 70 times more potent
Adenylate cyclase; versus dopamine, in words
  efficacy in the stimulation of adenylate cyclase versus dopamine: as efficacious
[2]
  levels of DHX in the brain and plasma: diminished
[3]; 0.3 to 0.93 mg/kg, im
  eye blink rates: increasing eye blink rates
  parkinsonian signs (tremor, motor freezing, abnormal posture, rigidity, bradykinesia): dramatically attenuated parkinsonian signs
[3]; primates
  activity in the MPTP-induced parkinsonism model: potent activity in the MPTP-induced parkinsonism model in primates
monkeys; young, intact monkeys
  spatial working memory: produced improvements in young, intact monkeys
[4]; injection of DHX
  ACh release in the frontal cortex: increase in acetylcholine release in the frontal cortex; also recorded: increased ACh release in the frontal cortex
6-OHDA-lesioned rats
  biological activity in a rodent model of PD (rotational behavior), persistence: persists long after the levels of DHX in the brain and plasma have diminished
Striatal acetylcholine; 3.0 mg/kg
  dialysate concentrations of striatal ACh: increase in dialysate concentration of striatal acetylcholine; also recorded: increase dialysate concentrations of striatal ACh
  duration of increase of dialysate concentrations of striatal ACh: at least 180 min
Striatal acetylcholine; 10 mg/kg
  dialysate concentrations of striatal ACh: increase in dialysate concentration of striatal acetylcholine; also recorded: increase dialysate concentrations of striatal ACh
  duration of increase of dialysate concentrations of striatal ACh: at least 180 min
Striatal acetylcholine; 17.5 mg/kg
  striatal ACh release: appears to be less than that evoked by lower doses

## CN1Cc2ccccc2C2c3cccc4[nH]cc(c34)CC21 (single isomer, unassigned) [CY 208-243]
Cortical ACh release
  cortical ACh release: significantly increased cortical ACh release

## NCCc1cc(O)c(O)cc1O [6-OHDA, 6-hydroxydopamine]
animals; avoidance conditioning, Morris water maze
  learning tasks after lesion of the nigrostriatal tract: impair a variety of learning tasks
animals
  memory-improving effect of nigrostriatal self-stimulation or of d-amphetamine (blockade): blocked

## Oc1cc2c(cc1O)[C@@H](c1ccccc1)CNCC2 [(+)-SKF 38393]
Striatal ACh output; systemic administration
  increase of striatal ACh output: 75%

## CCCN1CCO[C@@H]2c3cc(O)ccc3CC[C@H]21 [PHNO]
Cortical ACh release
  cortical ACh release: no effect

## CN1CCc2cc(Cl)c(O)cc2[C@@H](c2ccccc2)C1 [SCH23390]
Cortical ACh release
  D1 agonist-induced increase in cortical ACh release (blockade): blocked selectively
Striatal ACh output; 0.3 mg/kg
  effect of D1 agonist on striatal ACh output (blockade): blocked
[5]
  behavioral effects: mimic some of the behavioral effects previously associated with D2 antagonists
[4]; low dose in combination with DHX, listed as SCH 23390
  stimulatory effect of DHX on ACh release in the frontal cortex (blockade): completely block the stimulatory effect of administering DHX on acetylcholine release in the frontal cortex; also recorded: sensitive to antagonism by SCH 23390
Striatal acetylcholine
  stimulatory effect of DHX on striatal ACh release (blockade): completely block the stimulatory effect of DHX on striatal ACh release
Striatal acetylcholine; listed as SCH 23390
  stimulatory effect of DHX on striatal ACh release (blockade): completely block the stimulatory effect of administering DHX on striatal acetylcholine release
[6]
  choice accuracy deficits due to lesions: reversed CADs due to lesions of the medial projection of the basal forebrain to the cortex

## Oc1cc2c(cc1O)C(c1ccccc1)CNCC2 (centres unmarked) [SKF38393]
Dopamine D1 receptor
  selectivity for the D1 over the D2 receptor: greater than 10 fold
Adenylate cyclase; as efficacious as dopamine
  efficacy in stimulating adenylate cyclase relative to dopamine: 30-50%
rodents
  retention of win-stay and win-shift tasks: but not SKF38393, improved retention of the tasks
monkeys; aged and reserpine-treated monkeys
  spatial working memory: improved spatial working memory in aged and reserpine-treated monkeys
[7]
  choice accuracy deficits due to scopolamine: alleviated choice accuracy deficits (CADS) due to scopolamine

## Oc1cc2c(c(Cl)c1O)CCNCC2c1ccccc1 (centres unmarked) [SKF 81297]
Striatal acetylcholine; 3.0 mg/kg
  dialysate concentrations of striatal ACh: increase in dialysate concentration of striatal acetylcholine; also recorded: elevated striatal ACh release

## CN1[C@@H]2C[C@@H](OC(=O)[C@H](CO)c3ccccc3)C[C@H]1[C@@H]1O[C@@H]12 [Scopolamine]
[1]; ip, 30 min prior to training
  acquisition of the passive avoidance task (deficit): severe deficit in the acquisition of the passive avoidance task

## CC(C)C[C@H]1C(=O)N2CCC[C@H]2[C@]2(O)O[C@](NC(=O)[C@@H]3C=C4c5cccc6[nH]c(Br)c(c56)C[C@H]4N(C)C3)(C(C)C)C(=O)N12 [bromocriptine]
PD patients
  efficacy in the treatment of PD: either limited efficacy relative to levodopa or limited long-term efficacy

## C[C@H](N)Cc1ccccc1 [d-amphetamine]
animals; indirect dopamine agonist
  memory improvement: memory-improving effects
rodents
  retention of win-stay and win-shift tasks: improved retention of the tasks
rodents; post-training intracaudate injection
  win-stay acquisition: improved win-stay acquisition

## N[C@@H](Cc1ccc(O)c(O)c1)C(=O)O [levodopa]
PD patients
  efficacy in the treatment of PD: allowed PD patients to reach normal life expectancies

## CCCN1C[C@H](CSC)C[C@@H]2c3cccc4[nH]cc(c34)C[C@H]21 [pergolide]
PD patients
  efficacy in the treatment of PD: either limited efficacy relative to levodopa or limited long-term efficacy

## O=c1[nH]c2ccccc2n1C1CCN(CCCC(c2ccc(F)cc2)c2ccc(F)cc2)CC1 [pimozide]
animals
  memory-improving effect of nigrostriatal self-stimulation or of d-amphetamine (blockade): blocked

## CCCN1CCC[C@@H]2Cc3n[nH]cc3C[C@H]21 [quinpirole]
Striatal acetylcholine; 2.0 mg/kg, data not shown
  striatal ACh release: decreases striatal ACh release

## CCN1CCC[C@H]1CNC(=O)c1c(O)c(Cl)cc(Cl)c1OC [raclopride]
Striatal ACh output; administered 60 min after SKF 38393
  effect of D1 agonist on striatal ACh output (potentiation): potentiated
